Assay results as given in US20090069442A1, “Therapeutic Agent for Sensory Abnormality” (priority 2005, published 2009).

What was measured:
[1] = system: STZ-induced diabetic model mice; assay: Improving effect in dullness models, formaldehyde-induced licking and biting behavior; type: in vivo, ddY mice; conditions: a week of intraperitoneal administration (8, 24 and 40 mg/kg) with the STZ administration; 1% formaldehyde into plantar; FIG. 4
Method: Four-week-old male ddY mice were administered with a single dose of streptozotocin (hereunder, also referred to as STZ) (200 mg/kg) by tail vein injection, everyday for a week. For 24 hours after STZ administration, the rats were allowed to freely take a 10% glucose solution instead of drinking water, and then allowed to freely take distilled water. As the test substance, compound 24 synthesized in Preparation Example 24 was used. Concurrently with the start of STZ administration, the test substance-administration group was intraperitoneally administered with a single dose of the test substance (8 mg/kg, 24 mg/kg, and 40 mg/kg) everyday for a week. The control group was administered with the vehicle of the test substance during the same period. The blood glucose level of the tail venous blood was measured by a blood glucose meter (DEXTER ZII: Bayer Medical Ltd.). Individuals with a blood sugar level of 400 mg/dL or more, were used for the experiment. After a week of STZ administration, the mice were subcutaneously injected with 1% formaldehyde solution (20 μL) into the plantar of the left hind paw. The total time spent for licking (licking of plantar of the left hind paw) behavior and biting (biting of plantar of the left hind paw) behavior was scored every 5 minutes after administration, for 60 minutes.

[2] = system: sciatic nerve entrapment model rats (Bennett model rats); assay: Injury-preventive effect in partial nerve injury models, paw pressure (Randall-Selitto) method; type: in vivo, Spraugue-Dawley rats
Method: (§1) For a hyperalgesia model animal, sciatic nerve entrapment model rats (Bennett model rats) serving as partial nerve injury models, were used. That is, four-week-old male Spraugue-Dawley rats (Japan SLC, Inc.) were housed under a constant temperature and humidity condition for a week. Then, under anesthesia with pentobarbital (50 mg/kg), the sciatic nerve in the left hind paw was stripped from tissue, and raised using tweezers to slightly stretch the axon part. […] The right hind paw was left untreated and used as a normal paw. The operated site was disinfected with Isodine everyday in the first post-operative week to prevent infection.
As the test substance, compound 24 synthesized in Preparation Example 24 was used.
The nerve-injured paw (operated side) and the normal paw (untreated side) of each individual were previously subjected to an analgesic test, subsequently followed by Bennett operation. Furthermore, a single dose of the test substance (8 mg/kg) was intraperitoneally administered from the day of the operation, everyday for a week. The control group was administered with the vehicle of the test substance during the same period. After one week from the start of administration, the nerve injured paw (operated side) and the normal paw (untreated side) of each rat were again subjected to an analgesic test. […]

[3] = system: sciatic nerve entrapment model rats (Bennett model rats); assay: Analgesic effect in partial nerve injury models, paw pressure (Randall-Selitto) method; type: in vivo, Spraugue-Dawley rats; conditions: for pain threshold of the nerve-injured paw: started after hyperalgesia confirmed, FIG. 2
Method: as §1, with “for use” for “and used”
As the test substance, 3-(15-hydroxypentadecyl)-2,4,4-trimethyl-2-cyclohexen-1-one (hereafter, also referred to as compound 24) synthesized in Preparation Example 24 was used.
Rats showing reduction of pain threshold by 30% or more in the nerve-injured paw, and change in pain threshold within a range of 5% in the normal paw, as compared to preoperative values, were used for the experiment. Prior to administration of the test substance, the nerve-injured paw (operated side) and the normal paw (untreated side) of each individual were subjected to an analgesic test. Furthermore, the test substance-administered group was intraperitoneally administered with a single dose of the test substance (8 mg/kg, 24 mg/kg, and 40 mg/kg) everyday for a week. The control group was administered with the vehicle of the test substance during the same period. After one week from the start of administration, the nerve-injured paw (operated side) and the normal paw (untreated side) of each rat were again subjected to an analgesic test.
The paw pressure (Randall-Selitto) method using pressure stimuli was employed as the analgesic test. Mechanical pressure stimuli were applied on the dorsal portion of the rat hind paw by an analgesimeter, and the minimum value of pressure stimulus at which vocalization or withdrawal occurred was defined as pain threshold. In the measurement of pain threshold according to the paw pressure method, a rat has to be held down and restrained. […]

O=C1C=C(CCCCCCCCCCCCO)CCC1 [Preparation Example 3, 3-(12-hydroxydodecyl)-2-cyclohexen-1-one]
melting point: 35 to 36 °C

O=C1C=C(CCCCCCCCCCCCCO)CCC1 [Preparation Example 4, 3-(13-hydroxytridecyl)-2-cyclohexen-1-one]
melting point: 42 to 43 °C

CC1=C(CCCCCCCCCCCCCCCO)C(C)(C)CCC1=O [compound 24, 3-(15-hydroxypentadecyl)-2,4,4-trimethyl-2-cyclohexen-1-one]
Phase II pain response (total time spent for licking and biting behavior) [1]: improved Phase II torpor | pain threshold of the nerve-injured paw after the Bennett operation ([2]; 8 mg/kg intraperitoneally from the day of the operation, everyday for a week, FIG. 3): no significant change in pain threshold | pain threshold of the normal paw ([2]; normal paw (untreated side), 8 mg/kg intraperitoneally everyday for a week): no significant change in pain threshold | pain threshold of the nerve-injured paw ([3]; 24 mg/kg intraperitoneally once a day for a week): significant increase in pain threshold | pain threshold of the nerve-injured paw ([3]; 40 mg/kg intraperitoneally once a day for a week): significant increase in pain threshold | pain threshold of the normal paw ([3]; normal paw (untreated side), after the one-week administration period, intraperitoneal): no significant change in pain threshold

O=C1C=C(CCCCCCCCCCCCCCO)CCC1 [Preparation Example 5, 3-(14-hydroxytetradecyl)-2-cyclohexen-1-one]
melting point: 44 to 45 °C

O=C1C=C(CCCCCCCCCCCO)CCC1 [Preparation Example 2, 3-(11-hydroxyundecyl)-2-cyclohexen-1-one]
melting point: 34 to 35 °C
